Positions count from the first letter of the chain named.

Test [1] has as its target T1, GST-ARV1-N98 C58/C61A (Homo sapiens, UniProt Q9H2C2, C58A/C61A).
T1 construct: Expresses amino-terminal 98 amino acids of ARV1; made in house; host or cells: E. coli BL21 (pGEX-4T1)
T1 sequence (Q9H2C2 1-98 C58A/C61A): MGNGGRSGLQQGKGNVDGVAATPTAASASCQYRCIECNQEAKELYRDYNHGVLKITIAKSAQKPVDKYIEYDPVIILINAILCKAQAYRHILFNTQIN
Briefly: Liposome binding assay, site-directed mutant. The note with it: PC:PL, sulfatide or PI(4)P liposomes. As for the experimental part:
(§1) Lyophilized lipids were reconstituted in chloroform at 10 mg/ml and stored in glass tubes with Teflon tops at −20 °C until use. One milliliter of 10 mg/ml stock was dried under a stream of nitrogen in a glass tube until a lipid cake/film was formed. The lipid cake was then rehydrated in BLT rehydration buffer (5 mM Tris/HCl, pH 7.4, containing 150 mM NaCl) to a concentration of 1 mg/ml. Lipid suspensions were subjected to three freeze/thaw cycles using a dry ice ethanol/[…] water bath to encapsulate the buffer and improve liposome formation. The suspension and lipid extruder were equilibrated to temperature for 10 min and liposomes were extruded using […] polycarbonate membranes (Avestin). Liposomes were made by mixing stock lipid PL (1 mg/ml) with PC (10 mg/ml).
(§2) Sulfatide liposomes were generated as previously described ([94]). All lipids were resuspended in organic solvents as per manufacturer’s instructions. Liposomes were prepared with mixing PC:PE:cholesterol:sulfatides (1:1:1:4) and subsequently dried down by lyophilization to obtain lipid films. Lipids were hydrated in 20 mM Tris–HCL, pH 6.8, containing 100 mM NaCl at a concentration of 1 mg/ml.
(§3) PI(4)P liposomes were generated as described by Knodler et al. ([95]), with some modifications. Briefly, liposomes were generated at a lipid concentration of 10 mg/ml. Liposomes contained PC (60%), PI (30%), PE (8%), and PI(4)P (2%). Lipid solution was dried down and resuspended in liposome buffer (20 mM Hepes–HCL, pH 7.4, containing 1 mM EDTA and 50 mM potassium acetate). Liposomes were formed by sonication on ice.
(§4) Liposomes were serial diluted in floatation buffer (100 mM NaCl, 2 mM EDTA, pH 5.5) to a final concentration of 0.1 mg/ml. Nine hundred microliters of liposome solution was placed in clear ultracentrifuge tubes and mixed with 100 μl of 0.01 μg/ml of protein. The liposome/protein solution was incubated at room temperature for 1 h with occasional shaking. An initial 100 μl of liposome/protein solution (liposomes) was removed and the remaining 900 μl was centrifuged at 50,000g for 20 min at 4 °C. The pellet was resuspended in 800 μl of fresh floatation buffer, centrifuged as above, and 800 μl of supernatant was removed (wash 1). This was repeated a second time and again 800 μl of supernatant was removed (wash 2). The final pellet was resuspended in 100 μl of floatation buffer plus SDS treatment buffer (pellet). Thirty microliters of each fraction was run on a 15% SDS-PAGE gel and probed with an anti-GST monoclonal antibody at a 1:1500 dilution.

Test [2] deals with T2, GST-ARV1-N98 K67A (Homo sapiens, UniProt Q9H2C2, K67A).
T2 construct: Expresses amino-terminal 98 amino acids of ARV1; made in house; host or cells: E. coli BL21 (pGEX-4T1)
T2 sequence (Q9H2C2 1-98 K67A): T1 sequence (Q9H2C2 1-98 C58A/C61A) with A58C, A61C, K67A
The test can be described thus: Liposome binding assay, site-directed mutant. The note with it: PC:PL, sulfatide liposomes. The method, then:
as §1, §2, §3, §4

Test [3] has as its target T3, GST-ARV1-N98 N94A (Homo sapiens, UniProt Q9H2C2, N94A).
T3 construct: Expresses amino-terminal 98 amino acids of ARV1; made in house; host or cells: E. coli BL21 (pGEX-4T1)
T3 sequence (Q9H2C2 1-98 N94A): T1 sequence (Q9H2C2 1-98 C58A/C61A) with A58C, A61C, N94A
The test can be described thus: Liposome binding assay, site-directed mutant. The note with it: PC:PL, sulfatide or PI(4)P liposomes. The method, then:
as §1, §2, §3, §4

The target of test [4] is T4, 6XHIS-ARV1-N98 (Homo sapiens, UniProt Q9H2C2).
T4 construct: made in house; host or cells: E. coli BL21
T4 sequence (Q9H2C2 1-98): T1 sequence (Q9H2C2 1-98 C58A/C61A) with A58C, A61C
Briefly: HTRF phospholipid lipid-binding assay. The note with it: biotinylated lipid (Bio-PL) titrated, 0.75 μM protein; lipid labels mean the biotinylated lipids. From the text: An HTRF assay was developed for 6XHIS-ARV1-N98-lipid binding. HTRF measures analyte interactions through fluorescence resonance energy transfer technology and time-resolved measurements ([53]). The interaction between two molecules can be quantified through binding each individual molecule involved with a fluorescent label and then analyzing the transfer of energy between the initial donor fluorophore and the secondary acceptor fluorophore. Following excitation of the first fluorophore, transfer of energy can only occur if the molecules bound with the fluorescent tags are within proximity to each other.
Assays were plated in 384-well flat bottom microplates (Greiner Bio, catalog #784075-25). Proteins were diluted using binding buffer (20 mM Hepes buffer, pH 7.2, containing 0.1% BSA, and 0.01% Tween20) to a stock concentration of 0.75 μM, and biotinylated phospholipids were dispensed, dried under nitrogen gas, and resuspended in binding buffer to a stock concentration of 50 μM. The lipid stock solution was diluted by 1:2 for a series of 12 serial dilutions. For the assay, in sequential order, 6 μl of binding buffer was loaded into the plate in triplicate for each dilution of phospholipid. To this, 2 μl of 0.75 μM 6XHIS-ARV1-N98 was added, followed by 2 μl of biotinylated phospholipid. Immediately following each addition loaded into the plate, the plate was centrifuged for 1 min at 1000 rpm to bring the contents to the bottom of the well. Next, detection antibodies were mixed with detection buffer (20 mM Hepes buffer, pH 8.5, containing 0.01% BSA and 200 mM KF). […] Plates were read on a PerkinElmer EnVision Xcite Multilabel plate reader.
Curves were logarithmically transformed and normalized to a common scale before being fit with a nonlinear regression of the agonist against the normalized response. […] For phospholipid competition analysis, IC50; M values were determined using nonlinear regression of the inhibitor against normalized response.
A general note: In TR-FRET formats the signal depends on donor and acceptor labels being close together.

As to `CCCCCCCCCCCCCCCC(=O)OC[C@H](COP(=O)(O)O)OC(=O)CCCCCCCCCCCCCCC` [PA, phosphatidic acid], the liposome binding entry in test [1] is given as “did not bind”.
Turning to `CCCCCCCC/C=C\CCCCCCCC(=O)OC[C@H](COP(=O)(O)OCC(O)CO)OC(=O)CCCCCCC/C=C\CCCCCCCC` (some centres unmarked) [PG, phosphatidylglycerol], the liposome binding result is “unable to bind” in test [2] and “very weak” in test [3].
In the case of `CCCCCC(=O)O[C@H](COC(=O)CCCCCNC(=O)CCCC[C@@H]1SC[C@@H]2NC(=O)N[C@@H]21)COP(=O)(O)O[C@H]1[C@H](O)[C@@H](O)[C@H](OP(=O)(O)O)[C@@H](O)[C@H]1O` [reference compound], the values for the liposome binding result in test [3] and in test [1] were “lost the ability to bind” and “did not bind”, respectively.
Broadly, the EC50 is the concentration that produces a half-maximal response. Low readings indicate greater potency, high ones weaker potency. phosphatidylcholine [PC] had an EC50 in test [4] of 1.1 µM. In other words, the single-digit micromolar range.
As to phosphatidylethanolamine [PE], the liposome binding entry in test [2] is “showed binding”. The EC50 in test [4] amounted to 5.3 µM.

(Values after article PMC11952846, “The sterol-regulating human ARV1 binds cholesterol and phospholipids through its conserved ARV1 homology domain” (The Journal of Biological Chemistry, 2025).)
